Test results taken from ChEMBL document CHEMBL1201862, “PubChem BioAssay data set” (2004).
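48-hour exposure; five concentrations; linearly interpolated endpoints. Here, GI50 denotes the concentration required for 50% inhibition of growth.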 Calls of active or inactive are those of the source. Cut-off read from the data, not from the text of the source: active = GI50 up to about 1.1 µM and inactive = higher.

Legend:
Experiment in all cases: NCI-60 cell line screen, 48 h
[1] = test system: NCI/ADR-RES
[2] = test system: NCI-H460
[3] = test system: M14
[4] = test system: OVCAR-5
[5] = test system: ACHN
[6] = test system: TK-10
[7] = test system: SK-MEL-5
[8] = test system: Hs-578T
[9] = test system: HT-29
[10] = test system: A498
[11] = test system: DU-145
[12] = test system: MDA-N
[13] = test system: OVCAR-8
[14] = test system: CAKI-1
[15] = test system: RXF 393
[16] = test system: SF-295
[17] = test system: OVCAR-3
[18] = test system: RPMI-8226
[19] = test system: SK-OV-3
[20] = test system: CCRF-CEM

Compound	GI50 [1]	GI50 [2]	GI50 [3]	GI50 [4]	GI50 [5]	GI50 [6]	GI50 [7]	GI50 [8]	GI50 [9]	GI50 [10]	GI50 [11]	GI50 [12]	GI50 [13]	GI50 [14]	GI50 [15]	GI50 [16]	GI50 [17]	GI50 [18]	GI50 [19]	GI50 [20]
CN(C)CCNc1ccccn1	> 100 µM (inactive)	> 100 µM (inactive)	> 100 µM (inactive)	> 100 µM (inactive)	> 100 µM (inactive)	> 100 µM (inactive)	> 100 µM (inactive)	> 100 µM (inactive)	> 100 µM (inactive)	> 100 µM (inactive)	> 100 µM (inactive)	> 100 µM (inactive)	> 100 µM (inactive)	> 100 µM (inactive)	> 100 µM (inactive)	> 100 µM (inactive)	> 100 µM (inactive)			
CCOC(=O)Cn1sc2ncc([N+](=O)[O-])cc2c1=O	13.9 µM (inactive)	17.1 µM (inactive)		19.2 µM (inactive)	15.9 µM (inactive)	17.9 µM (inactive)	27.5 µM (inactive)	41 µM (inactive)	16.2 µM (inactive)	> 100 µM (inactive)	> 100 µM (inactive)	12.4 µM (inactive)	16.3 µM (inactive)		20 µM (inactive)	18.9 µM (inactive)	16.8 µM (inactive)	8 µM (inactive)	18.3 µM (inactive)	2.07 µM (inactive)
CNC(=O)CCCNC(=O)CCCC(=O)N(C)C	> 100 µM (inactive)	> 100 µM (inactive)	> 100 µM (inactive)	> 100 µM (inactive)	> 100 µM (inactive)	> 100 µM (inactive)	> 100 µM (inactive)	> 100 µM (inactive)	> 100 µM (inactive)	> 100 µM (inactive)	> 100 µM (inactive)	> 100 µM (inactive)	> 100 µM (inactive)	> 100 µM (inactive)		> 100 µM (inactive)	> 100 µM (inactive)	> 100 µM (inactive)	> 100 µM (inactive)	> 100 µM (inactive)
N#Cc1c(N)c2c(c(-c3ccccc3)c1-c1ccccc1)C(=O)N(NC(=S)Nc1ccccc1)C2=O	59.3 µM (inactive)	61.4 µM (inactive)	> 100 µM (inactive)	35.2 µM (inactive)	94.2 µM (inactive)	84.5 µM (inactive)	43.1 µM (inactive)	39.4 µM (inactive)		43.3 µM (inactive)	> 100 µM (inactive)		88.7 µM (inactive)	> 100 µM (inactive)	16.9 µM (inactive)	68.5 µM (inactive)	64.4 µM (inactive)	16.7 µM (inactive)		51.8 µM (inactive)
CN(C)c1ccc(/C=C2\C[C@H]3[C@@H]4CC=C5C[C@@H](O)CC[C@]5(C)[C@H]4CC[C@]3(C)[C@H]2O)cc1	18.4 µM (inactive)	14.4 µM (inactive)	18.2 µM (inactive)	17.3 µM (inactive)	16 µM (inactive)	18.5 µM (inactive)	17.6 µM (inactive)	23.4 µM (inactive)	8.09 µM (inactive)	17.2 µM (inactive)	34.1 µM (inactive)	20.2 µM (inactive)	3.84 µM (inactive)		25.5 µM (inactive)	20 µM (inactive)	22.5 µM (inactive)	29.9 µM (inactive)	31.2 µM (inactive)	
CCOC(=O)C(C)(C)/C=C\C(Cl)=C(Cl)Cl	> 100 µM (inactive)		> 100 µM (inactive)	> 100 µM (inactive)	> 100 µM (inactive)	> 100 µM (inactive)	> 100 µM (inactive)	> 100 µM (inactive)	> 100 µM (inactive)		> 100 µM (inactive)	> 100 µM (inactive)	> 100 µM (inactive)	> 100 µM (inactive)	> 100 µM (inactive)	> 100 µM (inactive)	> 100 µM (inactive)	> 100 µM (inactive)	> 100 µM (inactive)	71.6 µM (inactive)
Cc1c(C#N)c(N)[nH]c(=S)c1C#N		> 100 µM (inactive)		> 100 µM (inactive)	> 100 µM (inactive)	> 100 µM (inactive)	> 100 µM (inactive)	> 100 µM (inactive)	> 100 µM (inactive)	> 100 µM (inactive)	> 100 µM (inactive)	> 100 µM (inactive)	> 100 µM (inactive)	> 100 µM (inactive)	> 100 µM (inactive)	> 100 µM (inactive)	> 100 µM (inactive)	> 100 µM (inactive)		> 100 µM (inactive)
Brc1ccc2[nH]cc([C@@H]3CN[C@@H](c4c[nH]c5ccc(Br)cc45)CN3)c2c1	7.66 µM (inactive)	7.57 µM (inactive)	5.25 µM (inactive)	7.89 µM (inactive)	2.33 µM (inactive)	6.92 µM (inactive)	7.93 µM (inactive)	6.95 µM (inactive)	5.71 µM (inactive)	15 µM (inactive)	3.47 µM (inactive)		3.63 µM (inactive)	8.93 µM (inactive)	5.48 µM (inactive)	3.72 µM (inactive)	4.8 µM (inactive)	2.12 µM (inactive)	12.7 µM (inactive)	2.16 µM (inactive)
O=S(=O)(O)c1ccc(/N=N/c2ccc(/N=N/c3c(O)ccc4ccc(S(=O)(=O)O)cc34)cc2)cc1	> 100 µM (inactive)	> 100 µM (inactive)	> 100 µM (inactive)	> 100 µM (inactive)	> 100 µM (inactive)	> 100 µM (inactive)	> 100 µM (inactive)	> 100 µM (inactive)	> 100 µM (inactive)		> 100 µM (inactive)	> 100 µM (inactive)	> 100 µM (inactive)	> 100 µM (inactive)	> 100 µM (inactive)	> 100 µM (inactive)	> 100 µM (inactive)	> 100 µM (inactive)	> 100 µM (inactive)	> 100 µM (inactive)
N#Cc1nc(-c2ccccn2)oc1N		> 100 µM (inactive)		> 100 µM (inactive)	> 100 µM (inactive)	> 100 µM (inactive)	> 100 µM (inactive)	> 100 µM (inactive)	> 100 µM (inactive)	> 100 µM (inactive)	> 100 µM (inactive)	> 100 µM (inactive)		> 100 µM (inactive)	> 100 µM (inactive)	> 100 µM (inactive)	> 100 µM (inactive)	> 100 µM (inactive)	> 100 µM (inactive)	> 100 µM (inactive)
Nc1ccc2c(c1)S(=O)(=O)c1cc(N)ccc1-2	> 100 µM (inactive)	> 100 µM (inactive)	> 100 µM (inactive)	> 100 µM (inactive)	> 100 µM (inactive)	> 100 µM (inactive)	> 100 µM (inactive)	> 100 µM (inactive)	> 100 µM (inactive)	> 100 µM (inactive)	> 100 µM (inactive)	> 100 µM (inactive)	> 100 µM (inactive)	> 100 µM (inactive)	> 100 µM (inactive)	> 100 µM (inactive)	> 100 µM (inactive)		> 100 µM (inactive)	
Cn1c(=O)c2c(ncn2CCCCOc2ccc3c(c2)[n+]([O-])nc(N)[n+]3[O-])n(C)c1=O	> 100 µM (inactive)	31 µM (inactive)	29.4 µM (inactive)			51.6 µM (inactive)	9.38 µM (inactive)	22.9 µM (inactive)	43.2 µM (inactive)		44.2 µM (inactive)	26.1 µM (inactive)	20 µM (inactive)	59.8 µM (inactive)	14.9 µM (inactive)	32.6 µM (inactive)	20.4 µM (inactive)	30.5 µM (inactive)	30.3 µM (inactive)	32.7 µM (inactive)
CSCCCNC(=O)c1csc(-c2csc(CCNC(=O)CNC(=O)CNC(=O)CNC(=O)OC(C)(C)C)n2)n1	> 100 µM (inactive)	> 100 µM (inactive)	> 100 µM (inactive)	> 100 µM (inactive)	> 100 µM (inactive)	> 100 µM (inactive)	> 100 µM (inactive)	> 100 µM (inactive)	> 100 µM (inactive)	> 100 µM (inactive)	> 100 µM (inactive)	> 100 µM (inactive)	> 100 µM (inactive)	> 100 µM (inactive)	> 100 µM (inactive)	> 100 µM (inactive)	> 100 µM (inactive)		> 100 µM (inactive)	> 100 µM (inactive)
CN(C)CCn1c(=O)c2ccc(NCCNCCO)c3c(=O)c4ccccc4n(c1=O)c23	1.72 µM (inactive)	< 0.01 µM (active)	0.14 µM (active)	0.298 µM (active)	0.0116 µM (active)	0.764 µM (active)	0.0716 µM (active)	0.23 µM (active)	0.0853 µM (active)	0.106 µM (active)	0.0217 µM (active)	0.328 µM (active)	0.0632 µM (active)	< 0.0108 µM (active)		0.0469 µM (active)	0.288 µM (active)	< 0.0394 µM (active)	0.164 µM (active)	< 0.01 µM (active)
COc1ccc(-c2cc(=O)c3c(O)c(OC)c(OC)c(OC)c3o2)cc1 [GARDENIN B]	> 100 µM (inactive)	24.9 µM (inactive)	16.5 µM (inactive)	98.6 µM (inactive)	> 100 µM (inactive)	26.2 µM (inactive)	5.52 µM (inactive)	26.2 µM (inactive)	4.17 µM (inactive)		> 100 µM (inactive)	0.433 µM (active)	> 100 µM (inactive)	> 100 µM (inactive)	10.6 µM (inactive)	20.7 µM (inactive)	6.47 µM (inactive)	> 28.1 µM (inactive)	8.38 µM (inactive)	> 100 µM (inactive)
